Measurements: US20140221490A1, “METHODS OF TREATING PAIN” (Hospira, Inc., priority 2011, published 2014)

Tests used:
[1] = cited from earlier work
[2] = tested on: patients after abdominal or pelvic surgery; test: Abdominal or pelvic surgery trial: safety (adverse events, thrombophlebitis scale); format: in vivo, human
Procedure: Patients returned for a safety follow-up 5-9 days after baseline, and received a follow-up telephone call 30 days post-baseline. Safety assessments included physical examinations, laboratory testing, vital signs, 12-lead ECG, and evaluation of thrombophlebitis at the site of study drug injection using a 6-point scale (Table 5 and FIG. 6). AEs were recorded throughout the study.
The proportion of patients reporting ≧30% reduction from baseline in pain intensity was analyzed with the Cochran-Mantel-Haenszel test with center as a stratification variable. Time to meaningful (≧30%) reduction in pain intensity and time to administration of rescue medication were analyzed with Kaplan-Meier survival analysis techniques. Descriptive statistics were used for AEs, laboratory test results, vital signs, thrombophlebitis, and ECG results. Logistic regression was used to estimate the relative risk of cardiovascular events.

[3] = tested on: acute moderate to severe pain after abdominal or pelvic surgery; test: Multiple-dose randomized double-blind active- and placebo-controlled trial after abdominal or pelvic surgery: efficacy (SPID, pain relief, rescue morphine, patient global evaluation); format: in vivo, human
Procedure: A 331 multicenter, multiple-dose, multiple-day, randomized, double-blind, parallel-group study was conducted on patients who had undergone abdominal or pelvic surgery. Patients were randomly assigned to 18.75 mg of diclofenac, 37.5 mg of diclofenac, 30 mg ketorolac, or placebo (1:1:1:1 ratio). The diclofenac formulation was Dyloject™. The patients selected for the study had moderate to severe pain within 6 hours postoperatively, defined as pain intensity of at least 50 mm on a 0-100 VAS.
At 16 U.S. sites, adults 18-65 years old were screened if they were scheduled for abdominal or pelvic surgery within 2 weeks. Key inclusion criteria were moderate-to-severe postoperative pain, defined as intensity≧50 mm on a 0-100 mm visual analog scale (VAS) within 6 hours after surgery, and weight>50 kg. Exclusion criteria were applied to the preoperative, intraoperative, and postoperative periods. Key preoperative exclusion criteria were a history of chronic disease or severe asthma, a recent (≦6 months) cardiovascular event or clinically-significant abnormal electrocardiogram (ECG) at screening, consumption of aspirin (except <325 mg/day for antiplatelet cardiac protection), opioids, other NSAIDs, other common analgesics, major and minor tranquilizers, or antihistamines≦24 hours before study drug initiation (except if administered during surgery), consumption of a monoamine oxidase inhibitor, tryptophan, carbamazepine, or valproate≦2 weeks before baseline, any clinically-significant laboratory abnormality, and previous or present peptic ulceration, gastrointestinal (GI) bleeding, or any bleeding diathesis. In addition, long-acting NSAIDs or COX-2 inhibitors were to be discontinued 3 days before surgery. Subjects were also excluded in the event of a known allergy to diclofenac, NSAIDs, morphine, anesthetics, or any excipient of the study preparation, receipt of any other investigational medication within 3 months prior to administration of the study drug, known or suspected alcohol or drug abuse, and unwillingness to remain in the clinical research center for 2 nights or return within 5-9 days for a safety follow-up visit. Female subjects with a positive pregnancy test within 24 hours of surgery or who were lactating at screening were also excluded. Intraoperative exclusion criteria were subcostal incision during surgery and concomitant use of NSAIDs or acetaminophen (other intraoperative medications were not restricted). Subjects with abnormal postoperative baseline ECG were excluded from study participation. In addition, patient-controlled analgesia (PCA) was not permitted before or during study drug dosing. Nitrous oxide and very short-acting barbiturates or benzodiazepines were allowed, provided that there was a ≧1.5-hour washout period before study drug administration, to avoid residual effects on pain intensity assessments. […] Postoperative regional anesthesia was not allowed.
This was a multicenter, multiple-dose, multiple-day, randomized, double-blind, active- and placebo-controlled, parallel-group phase 3 study. […] Assignments were made according to a computer-generated random-number code, and clinical staff and patients were blinded to study drug assignment. The first dose of study medication (1 mL IV bolus) was received by patients in all treatment arms within this first 6-hour period (Table 4).
Administration of the first dose of study drug was taken as time 0, and all subsequent dosing and evaluation time points were in relation to time of first study drug dose. Subsequent injections were received every 6 hours until discharge or until patient withdrawal/discontinuation from the study, due either to an adverse event (AE), inadequate pain control, noncompliance with the study protocol, or at the investigator's discretion. […]

Compound: O=C(c1ccccc1)c1ccc2n1CCC2C(=O)O (centres unmarked) [Ketorolac, ketorolac tromethamine]
- Vd, volume of distribution [1]: 0.21 L/kg
- Prot. bind., drug fraction bound to protein (fP) ([1]; plasma): 99%
- Cmax ([1]; read-out: Cmax, maximum drug concentration in plasma, based on the drug's pharmacokinetics and administration of a normal drug dose): 1800 nM
- incidence of bleeding-related AEs ([2]; 30 mg): 6.1%
- incidence of cardiovascular AEs ([2]; 30 mg): 6.1%
- incidence of treatment-related AEs ([2]; 30 mg): 23.2%
- Abdominal Hematoma ([2]; 30 mg (n = 82)): 1 (1.2%) n (%)
- Bleeding-related AE: Anemia ([2]; 30 mg (n = 82)): 2 (2.4%) n (%)
- Blood Creatine phosphokinase (CPK) increased ([2]; 30 mg (n = 82)): 12 (14.6%) n (%)
- Constipation ([2]; 30 mg (n = 82)): 8 (9.8%) n (%)
- Diarrhea ([2]; 30 mg (n = 82)): 6 (7.3%) n (%)
- Flatulence ([2]; 30 mg (n = 82)): 22 (26.8%) n (%)
- Headache ([2]; 30 mg (n = 82)): 14 (17.1%) n (%)
- Hematoma ([2]; 30 mg (n = 82)): 0 (0.0%) n (%)
- Incision site complication ([2]; 30 mg (n = 82)): 0 (0.0%) n (%)
- Injection site pain, irritation ([2]; 30 mg (n = 82)): 17 (20.7%) n (%)
- Insomnia ([2]; 30 mg (n = 82)): 7 (8.5%) n (%)
- Nausea ([2]; 30 mg (n = 82)): 22 (26.8%) n (%)
- Number of patients experiencing ≧1 AE ([2]; 30 mg (n = 82)): 72 (87.8%) n (%)
- Pruritus ([2]; 30 mg (n = 82)): 3 (3.7%) n (%)
- Pyrexia ([2]; 30 mg (n = 82)): 9 (11.0%) n (%)
- Rectal Hemorrhage ([2]; 30 mg (n = 82)): 1 (1.2%) n (%)
- Tachycardia ([2]; 30 mg (n = 82)): 4 (4.9%) n (%)
- Thrombophlebitis ([2]; 30 mg (n = 82)): 6 (7.3%) n (%)
- Total patients with a Bleeding-Related AE ([2]; 30 mg (n = 82)): 5 (6.1%) n (%)
- Vaginal Hemorrhage ([2]; 30 mg (n = 82)): 0 (0.0%) n (%)
- Vomiting ([2]; 30 mg (n = 82)): 7 (8.5%) n (%)
- Wound complication ([2]; 30 mg (n = 82)): 1 (1.2%) n (%)
- Wound dehiscence ([2]; 30 mg (n = 82)): 1 (1.2%) n (%)
- Total Patients on Concomitant Anticoagulants with a Bleeding-Related AE ([2]; 30 mg, 49 on anticoagulants): 3 (6.1%) n (%)
- subjects reporting ≧1 bleeding-related AE among subjects receiving anticoagulants ([2]; ketorolac group (3/49), post hoc analysis): 6.1%
- Cumulative Amount of Rescue Medication, Mean (SD) ([3]; 0 to 24 hours, 30 mg (N = 82)): 6.7 (7.74) mg
- Opioid sparing vs. placebo ([3]; 0 to 24 hours, 30 mg (N = 82)): 40%
- Cumulative Amount of Rescue Medication, Mean (SD) ([3]; 0 to 48 hours, 30 mg (N = 82)): 8.5 (10.00) mg
- Opioid sparing vs. placebo ([3]; 0 to 48 hours, 30 mg (N = 82)): 46%
- Cumulative Amount of Rescue Medication, Mean (SD) ([3]; 0 to 72 hours, 30 mg (N = 82)): 8.5 (10.04) mg
- Opioid sparing vs. placebo ([3]; 0 to 72 hours, 30 mg (N = 82)): 47%
- Cumulative Amount of Rescue Medication, Mean (SD) ([3]; 0 to 72 hours, 30 mg (N = 82), listed as ketorolac): 8.5 mg
- Sum of the Pain Intensity Differences Over 0-48 Hours, Mean ([3]; 30 mg (N = 82)): 1583.2 mm·hours
- patients with at least a 30% reduction in pain intensity ([3]; at 45 minutes after study drug initiation, 30 mg): 57%
- patients with ≧30% reduction in pain intensity ([3]; during the first 6-hour dosing period, 30 mg): 76.8%
